Patent US7432228B2, “Inhibitor against biosynthesis of abscisic acid” (Riken, priority 2001, dated 2008)

Experiments:
[1] = system: Mung bean; test: Root length of cut Mung bean hypocotyls soaked in compound solutions; type: in vivo; settings: Mung bean hypocotyls soaked by 2 cm in compound solution at a given concentration; 6th day after soaking
Protocol: The compounds of the present invention were applied to plant bodies. Hypocotyls of Mung bean on the 6th-day after seeding, that were grown at 25° C., were cut in water with razor, and the hypocotyl parts were soaked by 2 cm in solutions of the compounds at a given concentration. On the 6th day after the soaking, the lengths of the roots were measured. The following results were shown as an average length per root.

[2] = system: seeds of barley; test: Germination rate of barley seeds; type: in vivo; settings: barley seeds with lowered germination rate; 100 seeds, test solution at a given concentration, light, 25° C., after one week
Protocol: In the test, 2 sheets of filter paper were placed in a 15 cm laboratory dish, and each of the test solutions of the compounds at a given concentration (10 ml) was added to the dish, and 100 seeds were put on the paper and cultured under a light at 25° C. Ratios of germinated seeds were calculated after one week.

[3] = system: spinach; test: Inhibitory test against pore closing; type: in vivo; settings: for inhibitory activities against pore closing: plants with open pores treated with compound, transferred into mannose solution of high concentration
Protocol: Inhibitory tests against pore closing were carried out by using the aforementioned compounds. In these tests, plants in the state that their pores are open are treated with the compounds, and closings of the pores are examined when the plants are transferred into a mannose solution of high concentration to make the pores closed. Pore closing is caused by the effect of abscisic acid biosynthesized in the body of a plant that has detected the change of the mannose concentration. The test was carried out according to the method described in the literature of Plant Physiology (1992) 99, 1258-1260 and by using spinach as a material.

[4] = system: abscisic acid biosynthesis; settings: reported in Plant Physiology (1992) 99, 1258-1260; cited from earlier work
[5] = system: epoxycarotenoid dioxygenase (NCED); test: Inhibitory action against epoxycarotenoid dioxygenase (NCED): cleavage reaction of neoxanthin; type: biochemical; settings: concentration of 100 μM
Protocol: The inhibitory action against epoxycarotenoid dioxygenase was studied. The test was carried out according to the method described in The Plant Journal (2001) 27(4), 325-333.
The NCED inhibitory activity of the compounds of the present invention was studied.

| SMILES | Length (cm), average length per root [1] | Germination rate (%) [2] | inhibitory activities against pore closing [3] | inhibitory action on the abscisic acid biosynthesis [4] | inhibition of the cleavage reaction of neoxanthin by NCED [5] | pore closing when treated plants were added with abscisic acid ([3]; compound-treated plants, abscisic acid added) |
| --- | --- | --- | --- | --- | --- | --- |
| COc1ccc(CNCCc2ccc(O)cc2)cc1OC [SY88, 4-[2-(3,4-dimethoxy-benzylamino)-ethyl]-phenol] | >0.1 cm | 8% | – | – | – | – |
| Oc1ccc(CCNCc2ccncc2)cc1 [SY106, 4-{2-[(pyridin-4-ylmethyl)-2-amino]-ethyl}-phenol] | >0.1 cm | 9% | – | – | – | – |
| COc1ccc(C=CCNCc2ccc(F)cc2)cc1OC [SY95, [3-(3,4-dimethoxy-phenyl)-allyl]-(4-fluoro-benzyl)-amine] | 0.6 cm | 29% | potent inhibitory activities | – | – | – |
| COc1ccc(NCC=Cc2ccc(OC)c(OC)c2)cc1 [SY87, [3-(3,4-dimethoxy-phenyl)-allyl]-(4-methoxy-phenyl)-amine] | 0.6 cm | 40% | potent inhibitory activities | – | – | – |
| Oc1ccc(CCNCc2ccc(O)c(O)c2)cc1 [SY90, 4-{[2-(4-hydroxy-phenyl)-ethylamino]-methyl}-benzene-1,2-diol] | >0.1 cm | 12% | – | – | – | – |
| COc1ccc(CCN(C)Cc2ccc(OC)c(OC)c2)cc1 [SY96, (3,4-dimethoxy-benzyl)-[2-(4-methoxy-phenyl)-ethyl]-methyl-amine] | 1.5 cm | 21% | potent inhibitory activities | – | – | – |
| COC(=O)COc1ccc(CCN(CC(=O)OC)Cc2ccc(OC)c(OC)c2)cc1 [SY94, {(3,4-dimethoxy-benzyl)-[2-(4-methoxycarbonylmethoxy-phenyl)-ethyl]-amino}-acetic acid methyl ester] | 2.1 cm | 52% | potent inhibitory activities | – | – | – |
| Oc1ccc(CCNCc2ccoc2)cc1 [SY107, 4-{2-[(furan-3-ylmethyl)-amino]-ethyl}-phenol] | >0.1 cm | 10% | – | – | – | – |
| CC(Cc1ccc(O)c(O)c1)C(C)Cc1ccc(O)c(O)c1 (centres unmarked) [NDGA, 4,4′-(2,3-dimethyl-1,4-butanediyl)bis-1,2-benzenediol] | – | – | – | inhibitory action on the abscisic acid biosynthesis | completely inhibited | did not close |
| COc1ccc(C=CCN(C)Cc2ccc(F)cc2)cc1OC [SY99, [3-(3,4-dimethoxy-phenyl)-allyl]-(4-fluoro-benzyl)-methyl-amine] | 0.4 cm | 15% | potent inhibitory activities | – | – | – |
| Oc1ccc(CCNCc2ccccc2O)cc1 [SY109, 4-[2-(2-hydroxy-benzylamino)-ethyl]-phenol] | 1.5 cm | 35% | potent inhibitory activities | – | – | – |
| COC(=O)CN(CC=Cc1ccc(OC)c(OC)c1)Cc1ccc(F)cc1 [SY97, [[3-(3,4-dimethoxy-phenyl)-allyl]-(4-fluoro-benzyl)-amino]-acetic acid methyl ester] | 0.7 cm | 18% | potent inhibitory activities | – | – | – |
